*1 amine or outer side, *2 acyl side, *3 side chain or, on linkers, in order; H or OH if unused. Where a SMILES comes first, the peptide text is derived from it. Bridges are numbered along the chain shown (N, C = ends). [ ]: non-standard residue; d: D form. The star is where a group is joined. ξ: configuration not given here. Phe(3-OMe,4-CONHMs) = COc1cc(C[C@H](N)C(=O)O)ccc1C(=O)NS(C)(=O)=O; hPhe(3-OMe,4-CONHMe) = CNC(=O)c1ccc(CC[C@H](N)C(=O)O)cc1OC; Phe(4-COOH) = N[C@@H](Cc1ccc(C(=O)O)cc1)C(=O)O; NMePhe(3-Cl) = CN[C@@H](Cc1cccc(Cl)c1)C(=O)O; Ala(4-thiazolyl) = N[C@@H](Cc1cscn1)C(=O)O; Tyr(3-F) = N[C@@H](Cc1ccc(O)c(F)c1)C(=O)O; NMehPhe = CN[C@@H](CCc1ccccc1)C(=O)O; X7 = O=C(C[C@H](COCCO)N[*:1])[*:2]; X6 = O=C([C@H](CCCCO)N[*:1])[*:2]; NMeF = CN[C@@H](Cc1ccccc1)C(=O)O; NMeGABA = CN(CCCC(=O)[*:2])[*:1]; CH2CONHtBu = CC(C)(C)NC(=O)C*; NMeL = CN[C@@H](CC(C)C)C(=O)O; Propyl(2R-OH) = C[C@@H](O)C*; NMeV = CN[C@H](C(=O)O)C(C)C; ξIle = CC[C@H](C)C(N)C(=O)O; NMeAbu = CC[C@H](NC)C(=O)O; NMeA = CN[C@@H](C)C(=O)O; Piperidide = C1CCN(*)CC1; dAbu = CC[C@@H](N)C(=O)O; X8 = C1COC[C@@H](C*)N1; Me2NCH2CH2 = CN(C)CC*; NBuGly = CCCCNCC(=O)O; Isopentyl = CC(C)CC*; NPrGly = CCCNCC(=O)O; Propyl(3-OH) = OCCC*; Ethyl(2-OH) = OCC*; N(OH)Me = CN(O)*; Sar = CNCC(=O)O; tBu = CC(C)(C)*
assay: in vitro; settings: human, Caco-2, Caco-2

| Structure (SMILES) | Papp [×10⁻⁶ cm/s] |
| --- | --- |
| CCCCN1CC(=O)N(C)[C@@H](CC(C)C)C(=O)N[C@@H](COCCN(C)C)C(=O)N(C)[C@@H](Cc2ccccc2)C(=O)N(C)[C@@H](C(C)C)C(=O)N[C@H](C(=O)N2CCCCC2)CC(=O)N[C@H](CC(C)C)C(=O)N(C)[C@@H](Cc2ccccc2)C(=O)N[C@@H](CC(C)C)C(=O)N(C)[C@@H](CC(C)C)C(=O)N[C@@H]([C@@H](C)O)C1=O [pd51] ([dL][NMeF]L[NMeL]T[NBuGly][NMeL]S(Me2NCH2CH2)[NMeF][NMeV]D-Piperidide; lactam N-11) | 0.07 |
| CCCN1CC(=O)N(C)[C@@H](CC(C)C)C(=O)N[C@@H](COC(C)(C)C)C(=O)N(C)[C@@H](Cc2ccccc2)C(=O)N(C)[C@@H](C(C)C)C(=O)N[C@H](C(=O)N2CCCCC2)CC(=O)N[C@H](C(C)C)C(=O)N(C)[C@@H](Cc2ccccc2)C(=O)N[C@@H](COCCN(C)C)C(=O)N(C)[C@@H](CC(C)C)C(=O)N[C@@H]([C@@H](C)O)C1=O [pd50] ([dV][NMeF]S(Me2NCH2CH2)[NMeL]T[NPrGly][NMeL]S(tBu)[NMeF][NMeV]D-Piperidide; lactam N-11) | 0.15 |

same assay, conditions: human, Caco-2, Caco-2 (cm/sec)

| Structure (SMILES) | Papp [×10⁻⁶ cm/s] |
| --- | --- |
| CCCN1CC(=O)N(C)[C@@H](CC(C)C)C(=O)N[C@@H](COCCC(C)C)C(=O)N(C)[C@@H](Cc2ccccc2)C(=O)N(C)[C@@H](CC(C)C)C(=O)N[C@H](C(=O)N2CCCCC2)CC(=O)N[C@H](CC)C(=O)N(C)[C@@H](CCc2ccccc2)C(=O)N[C@@H](CCCCO)C(=O)N(C)[C@@H](CC(C)C)C(=O)N[C@@H]([C@@H](C)O)C1=O [Compound B01] ([dAbu][NMehPhe][X6][NMeL]T[NPrGly][NMeL]S(Isopentyl)[NMeF][NMeL]D-Piperidide; lactam N-11) | < 0.11 |
| CC(C)C[C@@H]1NC(=O)[C@H](Cc2ccccc2)N(C)C(=O)[C@@H](C(C)C)NC(=O)C[C@@H](C(=O)N2CCCCC2)NC(=O)[C@H](CC(C)C)N(C)C(=O)[C@H](Cc2cccc(Cl)c2)N(C)C(=O)[C@H](COC[C@@H](C)O)NC(=O)[C@H](CC(C)C)N(C)C(=O)CN(C)C(=O)[C@H]([C@@H](C)O)NC(=O)[C@H](CC(C)C)N(C)C1=O [AP72] ([dV][NMeF]L[NMeL]T[Sar][NMeL]S(Propyl(2R-OH))[NMePhe(3-Cl)][NMeL]D-Piperidide; lactam N-11) | 0.95 |
| CCCCN1CC(=O)N(C)[C@@H](CC)C(=O)N[C@@H](COC[C@@H]2COCCN2)C(=O)N(C)[C@@H](Cc2ccccc2)C(=O)N(C)[C@@H](CC)C(=O)N[C@H](C(=O)N2CCCCC2)CC(=O)N[C@H](CC(C)C)C(=O)N(C)[C@@H](CC(C)C)C(=O)N[C@@H]([C@@H](C)CC)C(=O)N(C)[C@@H](CC(C)C)C(=O)N[C@@H]([C@@H](C)O)C1=O [AP240] ([dL][NMeL]I[NMeL]T[NBuGly][NMeAbu]S(X8)[NMeF][NMeAbu]D-Piperidide; lactam N-11) | 0.08 |
| CCCCN1CC(=O)N(C)[C@@H](CC(C)C)C(=O)N[C@@H](COCCCO)C(=O)N(C)[C@@H](Cc2cccc(Cl)c2)C(=O)N(C)[C@@H](CC(C)C)C(=O)N[C@H](C(=O)N2CCCCC2)CC(=O)N[C@H](C(C)C)C(=O)N(C)[C@@H](Cc2ccccc2)C(=O)N[C@@H](CC(C)C)C(=O)N(C)[C@@H](CC(C)C)C(=O)N[C@@H]([C@@H](C)O)C1=O [AP98] ([dV][NMeF]L[NMeL]T[NBuGly][NMeL]S(Propyl(3-OH))[NMePhe(3-Cl)][NMeL]D-Piperidide; lactam N-11) | 0.16 |
| CC[C@H](C)[C@@H]1NC(=O)[C@H](CC(C)C)N(C)C(=O)CCCN(C)C(=O)C[C@@H](C(=O)N2CCCCC2)NC(=O)[C@H](CC(C)C)N(C)C(=O)[C@H](C)N(C)C(=O)[C@H]([C@@H](C)O)NC(=O)[C@H](CC(C)C)N(C)C(=O)[C@H](Cc2ccc(O)c(F)c2)NC(=O)[C@H](CC(C)C)N(C)C(=O)[C@H](Cc2ccccc2)N(C)C1=O [pd119] ([NMeGABA][NMeL]I[NMeF][NMeL][Tyr(3-F)][NMeL]T[NMeA][NMeL]D-Piperidide; lactam N-11) | 0.16 |
| CCCCN1CC(=O)N(C)[C@@H](CC(C)C)C(=O)N[C@@H](COC(C)(C)C)C(=O)N(C)[C@@H](Cc2ccccc2)C(=O)N(C)[C@@H](CC(C)C)C(=O)N[C@H](C(=O)N2CCCCC2)CC(=O)N[C@H](C(C)C)C(=O)N(C)[C@@H](C(C)C)C(=O)N[C@@H](Cc2ccc(C(=O)NS(C)(=O)=O)c(OC)c2)C(=O)N(C)[C@@H](CC(C)C)C(=O)N[C@@H]([C@@H](C)O)C1=O [AP135] ([dV][NMeV][Phe(3-OMe,4-CONHMs)][NMeL]T[NBuGly][NMeL]S(tBu)[NMeF][NMeL]D-Piperidide; lactam N-11) | 0.88 |
| CCCCN1CC(=O)N(C)[C@@H](Cc2ccccc2)C(=O)N[C@@H](COCCO)CC(=O)N(C)[C@@H](CC(C)C)C(=O)N[C@@H]([C@@H](C)O)C(=O)N(CCC)CC(=O)N(C)[C@@H](Cc2ccccc2)C(=O)N(C)[C@@H](CC(C)C)C(=O)N[C@@H](CC(C)C)C(=O)N(C)[C@@H](CC(C)C)C(=O)N[C@H](C(=O)N2CCCCC2)CC1=O [AP25] ([NBuGly][NMeF][X7][NMeL]T[NPrGly][NMeF][NMeL]L[NMeL]D-Piperidide; lactam N-11) | 0.62 |
| CC(C)C[C@@H]1NC(=O)[C@H](Cc2cccc(Cl)c2)N(C)C(=O)[C@H](CC(C)C)N(C)C(=O)[C@H](COCCO)NC(=O)[C@H](C(C)C)N(C)C(=O)C[C@@H](C(=O)N2CCCCC2)NC(=O)[C@H](CC(C)C)N(C)C(=O)CN(C)C(=O)[C@H]([C@@H](C)O)NC(=O)[C@H](CC(C)C)N(C)C(=O)[C@H](CCc2ccccc2)N(C)C1=O [Compound A09] ([NMeV]S(Ethyl(2-OH))[NMeL][NMePhe(3-Cl)]L[NMehPhe][NMeL]T[Sar][NMeL]D-Piperidide; lactam N-11) | 0.72 |
| CC(C)C[C@@H]1NC(=O)[C@H](Cc2ccccc2)N(C)C(=O)[C@@H](C(C)C)NC(=O)C[C@@H](C(=O)N2CCCCC2)NC(=O)[C@H](C)N(C)C(=O)[C@H](CC(C)C)N(C)C(=O)[C@H](COC(C)(C)C)NC(=O)[C@H](CC(C)C)N(C)C(=O)CN(C)C(=O)[C@H](Cc2ccc(O)cc2)NC(=O)[C@H](CC(C)C)N(C)C1=O [pd127] ([dV][NMeF]L[NMeL]Y[Sar][NMeL]S(tBu)[NMeL][NMeA]D-Piperidide; lactam N-11) | 0.13 |
| CCCCN1CC(=O)N(C)[C@@H](CC(C)C)C(=O)N[C@@H](COC(C)(C)C)C(=O)N(C)[C@@H](Cc2ccccc2)C(=O)N(C)[C@@H](CC(C)C)C(=O)N[C@H](C(=O)N2CCCCC2)CC(=O)N[C@H](CC(C)C)C(=O)N(C)[C@@H](Cc2ccccc2)C(=O)N[C@@H](COCCCO)C(=O)N(C)[C@@H](CC(C)C)C(=O)N[C@@H]([C@@H](C)O)C1=O [AP89] ([dL][NMeF]S(Propyl(3-OH))[NMeL]T[NBuGly][NMeL]S(tBu)[NMeF][NMeL]D-Piperidide; lactam N-11) | 0.12 |
| CC[C@H](C)[C@@H]1NC(=O)[C@H](CC(C)C)NC(=O)[C@H](CC(C)C)N(C)C(=O)[C@H](CC(C)C)NC(=O)C[C@@H](C(=O)N2CCCCC2)NC(=O)[C@H](CC(C)C)N(C)C(=O)[C@H]([C@@H](C)O)NC(=O)[C@H](CCc2ccc(C(=O)NC)c(OC)c2)NC(=O)[C@H](CC(C)C)N(C)C1=O [AP263] (L[NMeL]LI[NMeL][hPhe(3-OMe,4-CONHMe)]T[NMeL]D-Piperidide; lactam N-9) | 1.8 |
| CCCCN1CC(=O)N(C)[C@@H](CC(C)C)C(=O)N[C@H](C(=O)N2CCCCC2)CC(=O)N(C)[C@@H](CC(C)C)C(=O)N[C@@H](COCCO)CC(=O)N(C)[C@@H](CC(C)C)C(=O)N(C)[C@@H](Cc2ccccc2)C(=O)N[C@@H](CC(C)C)C(=O)N(C)[C@@H](Cc2ccccc2)C(=O)N(C)[C@@H](CC(C)C)C(=O)N[C@@H]([C@@H](C)O)C1=O [AP23] ([NMeL][X7][NMeL][NMeF]L[NMeF][NMeL]T[NBuGly][NMeL]D-Piperidide; lactam N-11) | 0.43 |
| CCCCN1CC(=O)N(C)[C@@H](Cc2ccccc2)C(=O)N(C)[C@@H](CC(C)C)C(=O)N[C@@H](COC[C@@H]2COCCN2)C(=O)N(C)[C@@H](CC(C)C)C(=O)N[C@H](C(=O)N2CCCCC2)CC(=O)N(C)CC(=O)N(C)[C@@H](CC(C)C)C(=O)NC([C@@H](C)CC)C(=O)N(C)[C@@H](CC(C)C)C(=O)N[C@@H]([C@@H](C)O)C1=O (stereo partly drawn) [AP245] ([Sar][NMeL][ξIle][NMeL]T[NBuGly][NMeF][NMeL]S(X8)[NMeL]D-Piperidide; lactam N-11) | 0.1 |
| CC[C@H](C)[C@@H]1NC(=O)[C@H](CC(C)C)N(C)C(=O)CN(C)C(=O)C[C@@H](C(=O)N2CCCCC2)NC(=O)[C@H](CC(C)C)N(C)C(=O)[C@H](Cc2ccc(C(=O)N(C)O)cc2)NC(=O)[C@H](CC(C)C)N(C)C(=O)[C@H](Cc2cccc(Cl)c2)N(C)C(=O)CN(C)C(=O)[C@H]([C@@H](C)O)NC(=O)[C@H](CC(C)C)N(C)C1=O [AP255] ([Sar][NMeL]I[NMeL]T[Sar][NMePhe(3-Cl)][NMeL][Phe(4-COOH)](N(OH)Me)[NMeL]D-Piperidide; lactam N-11) | 0.05 |
| CCCCN1CC(=O)N(C)[C@@H](Cc2ccccc2)C(=O)N[C@@H]([C@@H](C)CC)C(=O)N(C)[C@@H](CC(C)C)C(=O)N[C@@H]([C@@H](C)O)C(=O)N(CCC)CC(=O)N(C)[C@@H](Cc2ccccc2)C(=O)N(C)[C@@H](CC(C)C)C(=O)N[C@@H](COCC(=O)NC(C)(C)C)C(=O)N(C)[C@@H](C)C(=O)N[C@H](C(=O)N2CCCCC2)CC1=O [AP18] ([NBuGly][NMeF]I[NMeL]T[NPrGly][NMeF][NMeL]S(CH2CONHtBu)[NMeA]D-Piperidide; lactam N-11) | 1 |

same assay, conditions: human, Caco-2, Caco-2 (cm/sec) Papp

| Structure (SMILES) | Papp [×10⁻⁶ cm/s] |
| --- | --- |
| CC(C)C[C@@H]1NC(=O)[C@H](CC(C)C)N(C)C(=O)[C@H](CC(C)C)N(C)C(=O)CNC(=O)[C@H](Cc2ccccc2)N(C)C(=O)[C@H](Cc2cscn2)NC(=O)[C@H](CC(C)C)N(C)C(=O)[C@H](Cc2ccccc2)NC(=O)[C@H](C)NC(=O)C[C@@H](C(=O)N(C)[C@@H](Cc2ccccc2)C(=O)N[C@@H](C)C(=O)N2CCCCC2)NC1=O [pd235] (AF[NMeL][Ala(4-thiazolyl)][NMeF]G[NMeL][NMeL]LD[NMeF]A-Piperidide; lactam N-10) | 0.1 |
| CC(C)C[C@@H]1NC(=O)[C@H](Cc2ccccc2)N(C)C(=O)[C@H](CC(C)C)N(C)C(=O)[C@H](Cc2ccccc2)NC(=O)[C@H](C)NC(=O)C[C@@H](C(=O)N2CCCCC2)NC(=O)[C@H](Cc2ccccc2)N(C)C(=O)CN(C)C(=O)[C@H](Cc2ccccc2)NC(=O)[C@H](CC(C)C)N(C)C(=O)[C@H]([C@@H](C)O)NC1=O [pd244] (AF[NMeL][NMeF]LT[NMeL]F[Sar][NMeF]D-Piperidide; lactam N-11) | 0.045 |
